Source: ChEMBL document CHEMBL1201861, “Genomics of Drug Sensitity in Cancer screening data, Wellcome Trust Sanger Institute”

Assays:
Assay in all cases: cells
COLO-741 = assay type: functional, cell-based; conditions: Homo sapiens
Description: SANGER: Inhibition of human COLO-741 cell growth in a cell viability assay.

CP50-MEL-B = assay type: functional, cell-based; conditions: Homo sapiens;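 further: growth inhibition of the human cell line, measured with a cell viability read-out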
Description: SANGER: Inhibition of human CP50-MEL-B cell growth in a cell viability assay.

Ca-Ski = assay type: functional, cell-based; conditions: Homo sapiens;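 further: cell viability assay measuring inhibition of Ca-Ski cell growth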
Description: SANGER: Inhibition of human Ca-Ski cell growth in a cell viability assay.

DU-145 = assay type: functional, cell-based; conditions: Homo sapiens
Description: SANGER: Inhibition of human DU-145 cell growth in a cell viability assay.

FTC-133 = assay type: functional, cell-based; conditions: Homo sapiens
GAMG = assay type: functional, cell-based; conditions: Homo sapiens;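 further: cell growth inhibition measured by a viability assay in the GAMG human cell line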
Description: SANGER: Inhibition of human GAMG cell growth in a cell viability assay.

HCC1569 = assay type: functional, cell-based; conditions: Homo sapiens;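 further: growth inhibition of human HCC1569 cells, read out with a cell viability assay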
Description: SANGER: Inhibition of human HCC1569 cell growth in a cell viability assay.

HCC1954 = assay type: functional, cell-based; conditions: Homo sapiens;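 further: growth inhibition of human HCC1954 cells, read out with a cell viability assay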
Description: SANGER: Inhibition of human HCC1954 cell growth in a cell viability assay.

HCC38 = assay type: functional, cell-based; conditions: Homo sapiens;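 further: cell viability assay on the human HCC38 cell line, with IC50 marking the concentration that inhibits cell growth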
Description: SANGER: Inhibition of human HCC38 cell growth in a cell viability assay.

HLE = assay type: functional, cell-based; conditions: Homo sapiens;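 further: growth inhibition of human HLE cells, read out by a cell viability assay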
Description: SANGER: Inhibition of human HLE cell growth in a cell viability assay.

HN = assay type: functional, cell-based; conditions: Homo sapiens
Description: SANGER: Inhibition of human HN cell growth in a cell viability assay.

HOS = assay type: functional, cell-based; conditions: Homo sapiens;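 further: growth inhibition of human HOS cells, read out with a cell viability assay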
Description: SANGER: Inhibition of human HOS cell growth in a cell viability assay.

HuCCT-1 = assay type: functional, cell-based, HuCCT1; conditions: Homo sapiens;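 further: growth inhibition of HuCCT-1 cells, read out by a cell viability assay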
Description: SANGER: Inhibition of human HuCCT1 cell growth in a cell viability assay.

IGROV-1 = assay type: functional, cell-based; conditions: Homo sapiens;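 further: reduction of IGROV-1 cell growth, read out with a viability assay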
Description: SANGER: Inhibition of human IGROV-1 cell growth in a cell viability assay.

JEG-3 = assay type: functional, cell-based; conditions: Homo sapiens;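 further: growth inhibition of human JEG-3 cells, read out with a cell viability assay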
Description: SANGER: Inhibition of human JEG-3 cell growth in a cell viability assay.

KYSE-150 cell line = assay type: functional, cell-based; conditions: Homo sapiens;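 further: growth inhibition of human KYSE-150 cells, read out with a cell viability assay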
Description: SANGER: Inhibition of human KYSE-150 cell growth in a cell viability assay.

MCF7 = assay type: functional, cell-based; conditions: Homo sapiens;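 further: growth inhibition of human MCF7 cells, read out with a cell viability assay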
Description: SANGER: Inhibition of human MCF7 cell growth in a cell viability assay.

MG-63 = assay type: functional, cell-based; conditions: Homo sapiens;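 further: growth inhibition of human MG-63 cells, read out with a cell viability assay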
Description: SANGER: Inhibition of human MG-63 cell growth in a cell viability assay.

NB7 = assay type: functional, cell-based, Homo sapiens; conditions: Homo sapiens, NB7;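 further: growth inhibition of NB7 cells, read out with a cell viability assay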
Description: SANGER: Inhibition of human NB7 cell growth in a cell viability assay.

NCI-H1623 = assay type: functional, cell-based; conditions: Homo sapiens;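 further: cell viability assay used as the read-out for growth inhibition of NCI-H1623 cells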
Description: SANGER: Inhibition of human NCI-H1623 cell growth in a cell viability assay.

NCI-H1793 = assay type: functional, cell-based; conditions: Homo sapiens;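 further: cell growth inhibition, read out by a cell viability assay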
Description: SANGER: Inhibition of human NCI-H1793 cell growth in a cell viability assay.

NCI-H2030 = assay type: functional, cell-based; conditions: Homo sapiens;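 further: growth inhibition of human NCI-H2030 cells, read out by a cell viability assay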
Description: SANGER: Inhibition of human NCI-H2030 cell growth in a cell viability assay.

NCI-H2228 = assay type: functional, cell-based; conditions: Homo sapiens;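 further: growth inhibition of human NCI-H2228 cells, read out by a cell viability assay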
Description: SANGER: Inhibition of human NCI-H2228 cell growth in a cell viability assay.

NY = assay type: functional, cell-based; conditions: Homo sapiens
Description: SANGER: Inhibition of human NY cell growth in a cell viability assay.

OE19 = assay type: functional, cell-based; conditions: Homo sapiens;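 further: growth inhibition of OE19 cells, measured through a cell viability read-out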
Description: SANGER: Inhibition of human OE19 cell growth in a cell viability assay.

OVCAR-3 = assay type: functional, cell-based; conditions: Homo sapiens;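 further: growth inhibition of human OVCAR-3 cells, determined by a cell viability assay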
Description: SANGER: Inhibition of human OVCAR-3 cell growth in a cell viability assay.

PANC-03-27 = assay type: functional, cell-based; conditions: Homo sapiens
Description: SANGER: Inhibition of human PANC-03-27 cell growth in a cell viability assay.

PANC-08-13 = assay type: functional, cell-based; conditions: Homo sapiens;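 further: cell growth inhibition, measured with a cell viability assay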
Description: SANGER: Inhibition of human PANC-08-13 cell growth in a cell viability assay.

RPMI-2650 = assay type: functional, cell-based; conditions: Homo sapiens
Description: SANGER: Inhibition of human RPMI-2650 cell growth in a cell viability assay.

SBC-5 = assay type: functional, cell-based; conditions: Homo sapiens;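 further: cell viability assay read-out, IC50 is the concentration that inhibits growth of the cells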
Description: SANGER: Inhibition of human SBC-5 cell growth in a cell viability assay.

SK-MEL-24 = assay type: functional, cell-based; conditions: Homo sapiens;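 further: growth inhibition read out by a cell viability assay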
Description: SANGER: Inhibition of human SK-MEL-24 cell growth in a cell viability assay.

SW1710 = assay type: functional, cell-based; conditions: Homo sapiens;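 further: growth inhibition of SW1710 cells, determined with a cell viability assay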
Description: SANGER: Inhibition of human SW1710 cell growth in a cell viability assay.

SW48 = assay type: functional, cell-based; conditions: Homo sapiens;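 further: growth inhibition of SW48 cells, read out with a cell viability assay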
Description: SANGER: Inhibition of human SW48 cell growth in a cell viability assay.

SAOS-2 = assay type: functional, cell-based; conditions: Homo sapiens;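 further: growth inhibition of human Saos-2 cells determined by a cell viability assay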
Description: SANGER: Inhibition of human Saos-2 cell growth in a cell viability assay.

T47D = assay type: functional, cell-based; conditions: Homo sapiens;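 further: growth inhibition of human T47D cells, measured with a cell viability assay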
Description: SANGER: Inhibition of human T47D cell growth in a cell viability assay.

647-V = assay type: functional, cell-based; conditions: Homo sapiens;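 further: growth inhibition of 647-V cells, read out with a cell viability assay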
Description: SANGER: Inhibition of human 647-V cell growth in a cell viability assay.

786-0 = assay type: functional, cell-based; conditions: Homo sapiens
Description: SANGER: Inhibition of human 786-0 cell growth in a cell viability assay.

8305C = assay type: functional, cell-based; conditions: Homo sapiens
Description: SANGER: Inhibition of human 8305C cell growth in a cell viability assay.

BCPAP = assay type: functional, cell-based; conditions: Homo sapiens;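 further: growth inhibition of BCPAP cells, read out in a cell viability assay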
Description: SANGER: Inhibition of human BCPAP cell growth in a cell viability assay.

BFTC-905 = assay type: functional, cell-based; conditions: Homo sapiens
Description: SANGER: Inhibition of human BFTC-905 cell growth in a cell viability assay.

BFTC-909 = assay type: functional, cell-based; conditions: Homo sapiens
Description: SANGER: Inhibition of human BFTC-909 cell growth in a cell viability assay.

CAL-12T = assay type: functional, cell-based; conditions: Homo sapiens;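 further: growth inhibition of human CAL-12T cells, read out with a cell viability assay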
Description: SANGER: Inhibition of human CAL-12T cell growth in a cell viability assay.

CAL-51 = assay type: functional, cell-based; conditions: Homo sapiens;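 further: human CAL-51 cell line, growth inhibition read out via a cell viability assay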
Description: SANGER: Inhibition of human CAL-51 cell growth in a cell viability assay.

U-118-MG = assay type: functional, cell-based; conditions: Homo sapiens
Description: SANGER: Inhibition of human U-118-MG cell growth in a cell viability assay.

UO-31 = assay type: functional, cell-based; conditions: Homo sapiens;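 further: cell viability assay measuring inhibition of cell growth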
Description: SANGER: Inhibition of human U031 cell growth in a cell viability assay.

CHL-1 = assay type: functional, cell-based; conditions: Homo sapiens;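 further: cell growth inhibition, read out with a cell viability assay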
Description: SANGER: Inhibition of human CHL-1 cell growth in a cell viability assay.

CHP-212 = assay type: functional, cell-based; conditions: Homo sapiens
Description: SANGER: Inhibition of human CHP-212 cell growth in a cell viability assay.

COLO-678 = assay type: functional, cell-based; conditions: Homo sapiens
Description: SANGER: Inhibition of human COLO-678 cell growth in a cell viability assay.

HC-1 = assay type: functional, cell-based, Homo sapiens; conditions: Homo sapiens, HC-1;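 further: growth inhibition of HC-1 cells measured by a cell viability assay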
Description: SANGER: Inhibition of human HC-1 cell growth in a cell viability assay.

KMOE-2 = assay type: functional, cell-based, Homo sapiens; conditions: Homo sapiens, KMOE-2;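 further: growth inhibition of human KMOE-2 cells, read out with a cell viability assay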
Description: SANGER: Inhibition of human KMOE-2 cell growth in a cell viability assay.

NCI-H510A = assay type: functional, cell-based, Homo sapiens; conditions: Homo sapiens, NCI-H510A;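 further: growth inhibition of NCI-H510A cells, read out with a cell viability assay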
Description: SANGER: Inhibition of human NCI-H510A cell growth in a cell viability assay.

Q: What does the source list for `CS(=O)(=O)N1CCN(Cc2cc3nc(-c4cccc5[nH]ncc45)nc(N4CCOCC4)c3s2)CC1` [PICTILISIB]?
A: IC50 (COLO-741): > 4000 nM; IC50 (CP50-MEL-B): > 4000 nM; IC50 (Ca-Ski): > 4000 nM; IC50 (DU-145): > 4000 nM; IC50 (FTC-133): > 4000 nM; IC50 (GAMG): 371 nM; IC50 (HCC1569): > 4000 nM; IC50 (HCC1954): > 4000 nM; IC50 (HCC38): > 4000 nM; IC50 (HLE): > 4000 nM; IC50 (HN): 3070 nM; IC50 (HOS): 1980 nM; IC50 (HuCCT-1): > 4000 nM; IC50 (IGROV-1): 634 nM; IC50 (JEG-3): > 4000 nM; IC50 (KYSE-150 cell line): > 4000 nM; IC50 (MCF7): 899 nM; IC50 (MG-63): 541 nM; IC50 (NB7): 390 nM; IC50 (NCI-H1623): 304 nM; IC50 (NCI-H1793): > 4000 nM; IC50 (NCI-H2030): 2240 nM; IC50 (NCI-H2228): 1850 nM; IC50 (NY): > 4000 nM; IC50 (OE19): > 4000 nM; IC50 (OVCAR-3): > 4000 nM; IC50 (PANC-03-27): 1510 nM; IC50 (PANC-08-13): > 4000 nM; IC50 (RPMI-2650): 3610 nM; IC50 (SBC-5): > 4000 nM; IC50 (SK-MEL-24): > 4000 nM; IC50 (SW1710): 1040 nM; IC50 (SW48): > 4000 nM; IC50 (SAOS-2): 1330 nM; IC50 (T47D): 598 nM; IC50 (647-V): > 4000 nM; IC50 (786-0): 2590 nM; IC50 (8305C): > 4000 nM; IC50 (BCPAP): > 4000 nM; IC50 (BFTC-905): 1130 nM; IC50 (BFTC-909): 1430 nM; IC50 (CAL-12T): > 4000 nM; IC50 (CAL-51): > 4000 nM; IC50 (U-118-MG): > 4000 nM; IC50 (UO-31): > 4000 nM; IC50 (CHL-1): 379 nM; IC50 (CHP-212): 2180 nM; IC50 (COLO-678): > 4000 nM

Q: For `CC1=C(/C=C/C(C)=C/C=C/C(C)=C/C(=O)O)C(C)(C)CCC1` [TRETINOIN], which IC50 (COLO-741) is on record?
A: > 10000 nM

Q: What about the IC50 (CP50-MEL-B) of the same molecule?
A: > 10000 nM

Q: And the IC50 (Ca-Ski)?
A: > 10000 nM

Q: And the IC50 (DU-145)?
A: > 10000 nM

Q: And the IC50 (FTC-133)?
A: > 10000 nM

Q: And the IC50 (GAMG)?
A: > 10000 nM

Q: What about the IC50 (HC-1) of the same molecule?
A: > 10000 nM

Q: And the IC50 (HCC1569)?
A: > 10000 nM

Q: And the IC50 (HCC1954)?
A: > 10000 nM

Q: And the IC50 (HCC38)?
A: > 10000 nM

Q: What about the IC50 (HLE) of the same molecule?
A: > 10000 nM

Q: And the IC50 (HN)?
A: > 10000 nM

Q: What about the IC50 (HOS) of the same molecule?
A: > 10000 nM

Q: And the IC50 (HuCCT-1)?
A: > 10000 nM

Q: What about the IC50 (IGROV-1) of the same molecule?
A: > 10000 nM

Q: What about the IC50 (JEG-3) of the same molecule?
A: > 10000 nM

Q: And the IC50 (KMOE-2)?
A: > 10000 nM

Q: And the IC50 (KYSE-150 cell line)?
A: > 10000 nM

Q: And the IC50 (MCF7)?
A: > 10000 nM

Q: What about the IC50 (MG-63) of the same molecule?
A: > 10000 nM

Q: And the IC50 (NB7)?
A: > 10000 nM

Q: What about the IC50 (NCI-H1623) of the same molecule?
A: > 10000 nM

Q: And the IC50 (NCI-H1793)?
A: > 10000 nM

Q: What about the IC50 (NCI-H2030) of the same molecule?
A: > 10000 nM

Q: And the IC50 (NCI-H2228)?
A: > 10000 nM

Q: What about the IC50 (NCI-H510A) of the same molecule?
A: > 10000 nM

Q: What about the IC50 (NY) of the same molecule?
A: > 10000 nM

Q: What about the IC50 (OE19) of the same molecule?
A: > 10000 nM

Q: What about the IC50 (OVCAR-3) of the same molecule?
A: > 10000 nM

Q: And the IC50 (PANC-03-27)?
A: > 10000 nM

Q: What about the IC50 (PANC-08-13) of the same molecule?
A: > 10000 nM

Q: And the IC50 (RPMI-2650)?
A: > 10000 nM

Q: And the IC50 (SBC-5)?
A: > 10000 nM

Q: And the IC50 (SK-MEL-24)?
A: > 10000 nM

Q: What about the IC50 (SW1710) of the same molecule?
A: > 10000 nM

Q: What about the IC50 (SW48) of the same molecule?
A: > 10000 nM

Q: What about the IC50 (SAOS-2) of the same molecule?
A: > 10000 nM

Q: And the IC50 (T47D)?
A: > 10000 nM

Q: And the IC50 (647-V)?
A: > 10000 nM

Q: And the IC50 (786-0)?
A: > 10000 nM

Q: And the IC50 (8305C)?
A: > 10000 nM

Q: What about the IC50 (BCPAP) of the same molecule?
A: > 10000 nM

Q: And the IC50 (BFTC-905)?
A: > 10000 nM

Q: What about the IC50 (BFTC-909) of the same molecule?
A: > 10000 nM

Q: And the IC50 (CAL-12T)?
A: > 10000 nM

Q: What about the IC50 (CAL-51) of the same molecule?
A: > 10000 nM

Q: And the IC50 (U-118-MG)?
A: > 10000 nM

Q: And the IC50 (UO-31)?
A: > 10000 nM

Q: What about the IC50 (CHL-1) of the same molecule?
A: > 10000 nM

Q: And the IC50 (CHP-212)?
A: > 10000 nM

Q: What about the IC50 (COLO-678) of the same molecule?
A: > 10000 nM

Q: `NC(=O)c1ccc(N(C(N)=O)c2c(F)cccc2F)nc1-c1ccc(F)cc1F` [VX-702] was tested. Which IC50 (COLO-741) did it give?
A: > 2000 nM

Q: And the IC50 (CP50-MEL-B)?
A: > 2000 nM

Q: And the IC50 (Ca-Ski)?
A: > 2000 nM

Q: What about the IC50 (DU-145) of the same molecule?
A: 146 nM

Q: And the IC50 (FTC-133)?
A: > 2000 nM

Q: And the IC50 (GAMG)?
A: > 2000 nM

Q: What about the IC50 (HC-1) of the same molecule?
A: > 2000 nM

Q: And the IC50 (HCC1569)?
A: > 2000 nM

Q: And the IC50 (HCC1954)?
A: > 2000 nM

Q: And the IC50 (HCC38)?
A: > 2000 nM

Q: What about the IC50 (HLE) of the same molecule?
A: > 2000 nM

Q: And the IC50 (HN)?
A: > 2000 nM

Q: What about the IC50 (HOS) of the same molecule?
A: > 2000 nM

Q: And the IC50 (HuCCT-1)?
A: > 2000 nM

Q: And the IC50 (IGROV-1)?
A: > 2000 nM

Q: What about the IC50 (JEG-3) of the same molecule?
A: > 2000 nM

Q: What about the IC50 (KMOE-2) of the same molecule?
A: > 2000 nM

Q: What about the IC50 (KYSE-150 cell line) of the same molecule?
A: > 2000 nM

Q: What about the IC50 (MCF7) of the same molecule?
A: > 2000 nM

Q: And the IC50 (MG-63)?
A: > 2000 nM

Q: And the IC50 (NB7)?
A: > 2000 nM

Q: What about the IC50 (NCI-H1623) of the same molecule?
A: > 2000 nM

Q: And the IC50 (NCI-H1793)?
A: > 2000 nM

Q: And the IC50 (NCI-H2030)?
A: > 2000 nM

Q: What about the IC50 (NCI-H2228) of the same molecule?
A: > 2000 nM

Q: And the IC50 (NCI-H510A)?
A: > 2000 nM

Q: And the IC50 (NY)?
A: > 2000 nM

Q: What about the IC50 (OE19) of the same molecule?
A: > 2000 nM

Q: And the IC50 (OVCAR-3)?
A: > 2000 nM

Q: What about the IC50 (PANC-03-27) of the same molecule?
A: > 2000 nM

Q: What about the IC50 (PANC-08-13) of the same molecule?
A: > 2000 nM

Q: What about the IC50 (RPMI-2650) of the same molecule?
A: > 2000 nM

Q: What about the IC50 (SBC-5) of the same molecule?
A: > 2000 nM

Q: What about the IC50 (SK-MEL-24) of the same molecule?
A: > 2000 nM

Q: And the IC50 (SW1710)?
A: > 2000 nM

Q: And the IC50 (SW48)?
A: > 2000 nM

Q: And the IC50 (SAOS-2)?
A: > 2000 nM

Q: And the IC50 (T47D)?
A: > 2000 nM

Q: What about the IC50 (647-V) of the same molecule?
A: > 2000 nM

Q: And the IC50 (786-0)?
A: > 2000 nM

Q: And the IC50 (8305C)?
A: > 2000 nM

Q: What about the IC50 (BCPAP) of the same molecule?
A: > 2000 nM

Q: And the IC50 (BFTC-905)?
A: > 2000 nM

Q: What about the IC50 (BFTC-909) of the same molecule?
A: > 2000 nM

Q: What about the IC50 (CAL-12T) of the same molecule?
A: > 2000 nM

Q: What about the IC50 (CAL-51) of the same molecule?
A: > 2000 nM

Q: And the IC50 (U-118-MG)?
A: > 2000 nM

Q: And the IC50 (UO-31)?
A: > 2000 nM

Q: And the IC50 (CHL-1)?
A: > 2000 nM

Q: And the IC50 (CHP-212)?
A: > 2000 nM

Q: And the IC50 (COLO-678)?
A: > 2000 nM
